pKi: −log10 of the molar value. *1 amine or outer side, *2 acyl side, *3 side chain or, on linkers, in order; H or OH if unused. Where a SMILES comes first, the peptide text is derived from it. Side-chain parts run from the residue outwards. [ ]: non-standard residue; d: D form. The star is where a group is joined. C20 diacid = O=C(O)CCCCCCCCCCCCCCCCCCC(=O)*; C18 diacid = O=C(O)CCCCCCCCCCCCCCCCC(=O)*; γGlu = O=C(O)[C@H](CCC(=O)[*:2])N[*:1]; αMeY = C[C@](N)(Cc1ccc(O)cc1)C(=O)O; αMeF = C[C@](N)(Cc1ccccc1)C(=O)O; 4Pal = N[C@@H](Cc1ccncc1)C(=O)O; αMeL = CC(C)C[C@](C)(N)C(=O)O; Orn = NCCC[C@H](N)C(=O)O; AEEA = NCCOCCOCC(=O)O; Aib = CC(C)(N)C(=O)O
Target: T1, human GLP-1R (Homo sapiens, UniProt P43220)
T1 construct: expressed in transfected cells; crude membranes
Experiment: [125I]-GLP-1 binding, SPA with WGA beads, 0.1% bacitracin
Details: geometric mean, read-out: hGLP1R Ki
Protocol: Stably transfected cell lines are prepared by subcloning receptor cDNA into a pcDNA3 expression plasmid and transfected into human embryonic kidney (HEK) 293 (hGcgR and hGLP-1R) or Chinese Hamster Ovary (CHO) (hGIPR) cells followed by selection with Geneticin (hGLP-1R and hGIPR) or hygromycin B (hGcgR).
Two methods are used for the preparation of crude cell membranes.
Method 1: Frozen cell pellets are lysed on ice in hypotonic buffer containing 50 mM Tris HCl, pH 7.5, and Roche Complete™ Protease Inhibitors with EDTA. The cell suspension is disrupted using a glass Potter-Elvehjem homogenizer fitted with a Teflon® pestle for 25 strokes. The homogenate is centrifuged at 4° C. at 1100× g for 10 minutes. The supernatant is collected and stored on ice while the pellets are resuspended in homogenization buffer and rehomogenized as described above. The homogenate is centrifuged at 1100× g for 10 minutes. The second supernatant is combined with the first supernatant and centrifuged at 35000× g for 1 hour at 4° C. The resulting membrane pellet is resuspended in homogenization buffer containing protease inhibitors at approximately 1 to 3 mg/mL, quick frozen in liquid nitrogen and stored as aliquots in a −80° C. freezer until use.
Method 2: Frozen cell pellets are lysed on ice in hypotonic buffer containing 50 mM Tris HCl, pH 7.5, 1 mM MgCl2, Roche Complete™ EDTA-free Protease Inhibitors and 25 units/mL DNAse I (Invitrogen). The cell suspension is disrupted using a glass Potter-Elvehjem homogenizer fitted with a Teflon® pestle for 20 to 25 strokes. The homogenate is centrifuged at 4° C. at 1800× g for 15 minutes. The supernatant is collected and stored on ice while the pellets are resuspended in homogenization buffer (without DNAse I) and rehomogenized as described above. The homogenate is centrifuged at 1800× g for 15 minutes. The second supernatant is combined with the first supernatant and centrifuged an additional time at 1800× g for 15 minutes. The overall supernatant is then centrifuged at 25000× g for 30 minutes at 4° C. The resulting membrane pellet is resuspended in homogenization buffer (without DNAse I) containing protease inhibitors at approximately 1 to 3 mg/mL and stored as aliquots in a −80° C. freezer until use.
The binding buffer contains 25 mM HEPES, pH 7.4, 2.5 mM CaCl2), 1 mM MgCl2, 0.1% (w/v) bacitracin, 0.003% (w/v) TWEEN®-20, and Roche Complete™ Protease Inhibitors without EDTA.
Data are analyzed using four-parameter (curve maximum, curve minimum, IC50, Hill slope) nonlinear regression routines (Genedata Screener, version 12.0.4, Genedata AG, Basal, Switzerland). […] Values for Ki are reported as the geometric mean, with error expressed as the standard error of the mean (SEM) and n is equal to the number of independent replicates (determined in assays performed on different days). […] SEM is only calculated when […] or greater. Means are expressed as geometric means with the standard error of the mean (SEM) and the number of replicates (n) indicated in parentheses.

T1 sequence (P43220 24-463): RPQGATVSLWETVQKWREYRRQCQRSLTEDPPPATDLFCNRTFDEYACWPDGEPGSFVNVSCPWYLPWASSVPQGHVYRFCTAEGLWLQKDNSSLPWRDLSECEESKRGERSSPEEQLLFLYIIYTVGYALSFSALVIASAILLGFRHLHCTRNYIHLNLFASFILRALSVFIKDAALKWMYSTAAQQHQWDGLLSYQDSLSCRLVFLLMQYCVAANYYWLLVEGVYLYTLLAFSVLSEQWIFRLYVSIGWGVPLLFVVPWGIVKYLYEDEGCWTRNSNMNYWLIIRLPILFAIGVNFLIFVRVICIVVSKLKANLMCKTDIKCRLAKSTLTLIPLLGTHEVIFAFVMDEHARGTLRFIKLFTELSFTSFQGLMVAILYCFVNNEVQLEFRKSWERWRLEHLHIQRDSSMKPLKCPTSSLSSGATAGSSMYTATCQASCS

| SMILES | pKi |
| --- | --- |
| CC[C@H](C)[C@H](NC(=O)[C@H](Cc1ccccc1)NC(=O)[C@@H](NC(=O)CNC(=O)[C@H](CCC(=O)O)NC(=O)C(C)(C)NC(=O)[C@@H](N)Cc1ccc(O)cc1)[C@@H](C)O)C(=O)N[C@@H](CO)C(=O)N[C@@H](CC(=O)O)C(=O)N[C@@H](Cc1ccc(O)cc1)C(=O)N[C@@H](CO)C(=O)N[C@H](C(=O)N[C@@](C)(CC(C)C)C(=O)N[C@@H](CC(C)C)C(=O)N[C@@H](CC(=O)O)C(=O)N[C@@H](CCCN)C(=O)N[C@@H](CCCCNC(=O)COCCOCCNC(=O)COCCOCCNC(=O)CC[C@H](NC(=O)CCCCCCCCCCCCCCCCCCC(=O)O)C(=O)O)C(=O)N[C@@H](Cc1c[nH]cn1)C(=O)N[C@@H](CCC(N)=O)C(=O)NC(C)(C)C(=O)N[C@@H](CC(=O)O)C(=O)N[C@@H](Cc1ccccc1)C(=O)N[C@H](C(=O)N[C@@H](CCC(=O)O)C(=O)N[C@@H](Cc1ccncc1)C(=O)N[C@@H](CC(C)C)C(=O)N[C@@H](CC(C)C)C(=O)N[C@@H](CCC(=O)O)C(=O)N[C@H](C(=O)NCC(=O)N1CCC[C@H]1C(=O)N[C@@H](CO)C(=O)N[C@@H](CO)C(=O)NCC(=O)N[C@@H](C)C(=O)N1CCC[C@H]1C(=O)N1CCC[C@H]1C(=O)N1CCC[C@H]1C(=O)N[C@@H](CO)C(N)=O)[C@@H](C)O)C(C)C)[C@@H](C)CC [Example 80] (H-Y[Aib]EGTFISDYSI[αMeL]LD[Orn]K([AEEA-AEEA-γGlu-C20 diacid])HQ[Aib]DFVE[4Pal]LLETGPSSGAPPPS-NH2) | < 6.04 |
| CC[C@H](C)[C@H](NC(=O)[C@H](CO)NC(=O)[C@H](Cc1ccc(O)cc1)NC(=O)[C@H](CC(=O)O)NC(=O)[C@H](CO)NC(=O)[C@@H](NC(=O)[C@](C)(Cc1ccccc1)NC(=O)[C@@H](NC(=O)CNC(=O)[C@H](CCC(=O)O)NC(=O)C(C)(C)NC(=O)[C@@H](N)Cc1ccc(O)cc1)[C@@H](C)O)[C@@H](C)CC)C(=O)N[C@@H](C)C(=O)N[C@@H](CC(C)C)C(=O)N[C@@H](CC(=O)O)C(=O)N[C@@H](CCCCN)C(=O)N[C@@H](CCCCNC(=O)COCCOCCNC(=O)COCCOCCNC(=O)CC[C@H](NC(=O)CCCCCCCCCCCCCCCCC(=O)O)C(=O)O)C(=O)N[C@@H](Cc1c[nH]cn1)C(=O)N[C@@H](CCC(N)=O)C(=O)NC(C)(C)C(=O)N[C@@H](CC(=O)O)C(=O)N[C@@H](Cc1ccccc1)C(=O)N[C@H](C(=O)N[C@@H](CCC(=O)O)C(=O)N[C@@H](Cc1ccncc1)C(=O)N[C@@H](CC(C)C)C(=O)N[C@@H](CC(C)C)C(=O)N[C@@H](C)C(=O)NCC(=O)NCC(=O)N1CCC[C@H]1C(=O)N[C@@H](CO)C(=O)N[C@@H](CO)C(=O)NCC(=O)N[C@@H](C)C(=O)N1CCC[C@H]1C(=O)N1CCC[C@H]1C(=O)N1CCC[C@H]1C(=O)N[C@@H](CO)C(N)=O)C(C)C [Example 23] (H-Y[Aib]EGT[αMeF]ISDYSIALDKK([AEEA-AEEA-γGlu-C18 diacid])HQ[Aib]DFVE[4Pal]LLAGGPSSGAPPPS-NH2) | 6.60 |
| CC[C@H](C)[C@H](NC(=O)[C@H](CO)NC(=O)[C@H](Cc1ccc(O)cc1)NC(=O)[C@H](CC(=O)O)NC(=O)[C@H](CO)NC(=O)[C@@H](NC(=O)[C@](C)(Cc1ccccc1)NC(=O)[C@@H](NC(=O)CNC(=O)[C@H](CCC(=O)O)NC(=O)C(C)(C)NC(=O)[C@@H](N)Cc1ccc(O)cc1)[C@@H](C)O)[C@@H](C)CC)C(=O)N[C@@H](C)C(=O)N[C@@H](CC(C)C)C(=O)N[C@@H](CC(=O)O)C(=O)N[C@@H](CCCCN)C(=O)N[C@H](C(=O)N[C@@H](Cc1c[nH]cn1)C(=O)N[C@@H](CCC(N)=O)C(=O)NC(C)(C)C(=O)N[C@@H](CCC(=O)O)C(=O)N[C@@H](Cc1ccccc1)C(=O)N[C@H](C(=O)N[C@@H](CC(N)=O)C(=O)N[C@@H](Cc1ccc(O)cc1)C(=O)N[C@@H](CCCCNC(=O)COCCOCCNC(=O)COCCOCCNC(=O)CC[C@H](NC(=O)CCCCCCCCCCCCCCCCCCC(=O)O)C(=O)O)C(=O)N[C@@H](CC(C)C)C(=O)N[C@@H](C)C(=O)NCC(=O)NCC(=O)N1CCC[C@H]1C(=O)N[C@@H](CO)C(=O)N[C@@H](CO)C(=O)NCC(=O)N[C@@H](C)C(=O)N1CCC[C@H]1C(=O)N1CCC[C@H]1C(=O)N1CCC[C@H]1C(=O)N[C@@H](CO)C(N)=O)C(C)C)[C@@H](C)CC [Example 97] (H-Y[Aib]EGT[αMeF]ISDYSIALDKIHQ[Aib]EFVNYK([AEEA-AEEA-γGlu-C20 diacid])LAGGPSSGAPPPS-NH2) | 6.24 |
| CC[C@H](C)[C@H](NC(=O)[C@H](CO)NC(=O)[C@H](Cc1ccc(O)cc1)NC(=O)[C@H](CC(=O)O)NC(=O)[C@H](CO)NC(=O)[C@@H](NC(=O)[C@H](Cc1ccccc1)NC(=O)[C@@H](NC(=O)CNC(=O)[C@H](CCC(=O)O)NC(=O)C(C)(C)NC(=O)[C@@H](N)Cc1ccc(O)cc1)[C@@H](C)O)[C@@H](C)CC)C(=O)N[C@@H](CC(C)C)C(=O)N[C@@H](CC(C)C)C(=O)N[C@@H](CC(=O)O)C(=O)N[C@@H](CCCCN)C(=O)N[C@@H](CCCCNC(=O)COCCOCCNC(=O)COCCOCCNC(=O)CC[C@H](NC(=O)CCCCCCCCCCCCCCCCCCC(=O)O)C(=O)O)C(=O)N[C@@H](C)C(=O)N[C@@H](CCC(N)=O)C(=O)NC(C)(C)C(=O)N[C@@H](CC(=O)O)C(=O)N[C@@H](Cc1ccccc1)C(=O)N[C@H](C(=O)N[C@@H](CC(N)=O)C(=O)N[C@@H](Cc1c[nH]c2ccccc12)C(=O)N[C@@H](CC(C)C)C(=O)N[C@@H](CC(C)C)C(=O)N[C@@H](C)C(=O)N[C@@H](CCC(N)=O)C(=O)NCC(=O)N1CCC[C@H]1C(=O)N[C@@H](CO)C(=O)N[C@@H](CO)C(=O)NCC(=O)N[C@@H](C)C(=O)N1CCC[C@H]1C(=O)N1CCC[C@H]1C(=O)N1CCC[C@H]1C(=O)N[C@@H](CO)C(N)=O)C(C)C [Example 8] (H-Y[Aib]EGTFISDYSILLDKK([AEEA-AEEA-γGlu-C20 diacid])AQ[Aib]DFVNWLLAQGPSSGAPPPS-NH2) | 7.42 |
| CC[C@H](C)[C@H](NC(=O)[C@H](Cc1ccccc1)NC(=O)[C@@H](NC(=O)CNC(=O)[C@H](CCC(=O)O)NC(=O)C(C)(C)NC(=O)[C@@H](N)Cc1ccc(O)cc1)[C@@H](C)O)C(=O)N[C@@H](CO)C(=O)N[C@@H](CC(=O)O)C(=O)N[C@@H](Cc1ccc(O)cc1)C(=O)N[C@@H](CO)C(=O)N[C@H](C(=O)N[C@@](C)(CC(C)C)C(=O)N[C@@H](CC(C)C)C(=O)N[C@@H](CC(=O)O)C(=O)N[C@@H](CCCCN)C(=O)N[C@@H](CCCCNC(=O)COCCOCCNC(=O)COCCOCCNC(=O)CC[C@H](NC(=O)CCCCCCCCCCCCCCCCCCC(=O)O)C(=O)O)C(=O)N[C@@H](Cc1c[nH]cn1)C(=O)N[C@@H](CCC(N)=O)C(=O)NC(C)(C)C(=O)N[C@@H](CC(=O)O)C(=O)N[C@@H](Cc1ccccc1)C(=O)N[C@H](C(=O)N[C@@H](CCC(=O)O)C(=O)N[C@@](C)(Cc1ccc(O)cc1)C(=O)N[C@@H](CC(C)C)C(=O)N[C@@H](CC(C)C)C(=O)N[C@@H](CCC(=O)O)C(=O)NCC(=O)NCC(=O)N1CCC[C@H]1C(=O)N[C@@H](CO)C(=O)N[C@@H](CO)C(=O)NCC(=O)N[C@@H](C)C(=O)N1CCC[C@H]1C(=O)N1CCC[C@H]1C(=O)N1CCC[C@H]1C(=O)N[C@@H](CO)C(N)=O)C(C)C)[C@@H](C)CC [Example 91] (H-Y[Aib]EGTFISDYSI[αMeL]LDKK([AEEA-AEEA-γGlu-C20 diacid])HQ[Aib]DFVE[αMeY]LLEGGPSSGAPPPS-NH2) | 7.43 |

From patent US12723063B2, “GIPR-agonist compounds” (Eli Lilly and Company, priority 2019, dated 2026)
